{"source": "patent US12257326B2", "about": "“TCO conjugates and methods for delivery of therapeutic agents” (THE REGENTS OF THE UNIVERSITY OF CALIFORNIA, priority 2014, dated 2025)", "key": {"[1]": {"assay": "In-vivo kinetic multiple dose evaluation of fluorescence (IVIS Spectrum)", "set-up": "species or system mice", "details": "50 nmoles per tail vein injection; Tz-Me-gel group vs no gel and unmodified alginate gel; paired T-test, n=3", "procedure": "Three mice were evaluated after each injection of 50 nmoles of TCO-R-Rhodamine through tail vein injection. The mice were treated as described above their images. […] The “released” subject received an injection in the subcutaneous back of Tz-Me-gel. The “gel control” subject received an injection in the subcutaneous back of alginate gel. The mice were evaluated with an IVIS Spectrum machine after 5-10 minutes and 110-150 minutes after each dose of fluorophore.\nCompared by paired T-test (n=3).\n(§1) For in-vivo experiments, 800 μl of 2.5% alginate solution were mixed with 200 μl of supersaturated […] solution (0.21 g Ca(SO4)2/ml ddH2O). The solutions were mixed for 30 s using a three-way stopcock to achieve a final alginate concentration of 2%. The mixture was immediately injected to the animal in the desired amount."}, "[2]": {"assay": "In-vivo kinetic biodistribution of fluorescence after TCO-R-Rhodamine injection", "set-up": "species or system mice", "details": "Tz-Me-Gel (released) vs negative control (no gel injection)", "procedure": "The bar graph extrapolates the data to a presumed total amount achieved in 8 hours.\nas §1\nAfter IACUC approval, in-vivo real-time biodistribution studies of fluorescence were carried out in nu/nu mice (n=2 per condition) by injecting either nothing or a type of alginate (control vs Tz-Gel). Then subjects received a tail-vein injection of TCO-R-F or TCO-NR-F. The negative controls were: 1. No gels with TCO-R-F (Negative control, mouse 1); 2. control alginate with TCO-R-F (Gel control, mouse 4). The two experimental groups were Tz-gel and either TCO-R-F (Released protocol, mouse 2) or TCO-NR-F (Immobilized protocol, mouse 3). Fluorescence was measured with an IVIS Spectrum (Perkin Elmer, MA) and reported in radiance."}}, "data": [{"compound": "CN(C)c1ccc2c(-c3ccc(C(=O)NCCNC(=O)OC4/C=C/CCCCC4)cc3C(=O)O)c3ccc(=[N+](C)C)cc-3oc2c1", "note": "(centres unmarked) [TCO-R-Rhodamine, (E)-5-((2-(((cyclooct-2-cn-1-yloxy)carbonyl)amino)ethyl)carbamoyl)-2-(3-(dimethyl-Π^4-azanylidene)-6-(dimethylamino)-3H-xanthen-9-yl)benzoic acid]", "values": [{"measurement": "average fluorescence at 5-10 minutes vs 110-150 minutes after second, third & fourth injection", "setting": "[1]", "value": "statistically higher"}, {"measurement": "dose reflected by the area under the curve of fluorescence, extrapolated to total amount in 8 hours", "setting": "[2]", "value": "almost doubled"}]}]}
